Values quoted from earlier work, collected in patent US11318122B2, “Pharmaceutical combination and its use for treating synucleinopathties” (CHASE THERAPEUTICS CORPORATION, priority 2017, dated 2022).

Tests used:
MPTP-induced damage = details: toxin-induced model of PD
[1] = tested on: extracellular concentrations of norepinephrine and dopamine; details: large doses, rodents, acute systemic administration
[2] = tested on: 6-OHDA (6-hydroxydopamine)-induced damage; details: toxin-induced model of PD
synuclein = synuclein (Homo sapiens, UniProt P37840)
[3] = doses approved for the treatment of motor symptoms of PD; 535 PD patients
[4] = biological target: alpha-synuclein in human neuroblastoma SH5Y cells (Homo sapiens, UniProt P37840)
[5] = biological target: human wild-type alpha-synuclein (Homo sapiens, UniProt P37840); details: by H2O2 plus cytochrome c
[6] = 5 mg/day of pramipexole

Structure (SMILES) | protection against MPTP-induced damage (MPTP-induced damage) | extracellular concentrations of norepinephrine and dopamine [1] | protection against 6-OHDA-induced damage [2] | synuclein oligomer formation in vitro (synuclein) | neuroprotective (disease modifying) activity [3] | aggregation of alpha-synuclein [4] | in vitro oligomerization of human wild-type alpha-synuclein [5] | toxic effects of rotenone on dopaminergic neurons (dopaminergic neurons; mouse PD model) | immunoreactivity for alpha-synuclein (dopaminergic neurons; rotenone mouse PD model) | nausea [6] | vomiting [6] | patients not able to complete the study ([6]; presumably because of intolerable GI adverse events)
CNCCC(Oc1ccc(C(F)(F)F)cc1)c1ccccc1 (stereo not drawn) [fluoxetine, 1-methylamino-3-phenyl-3-[4-(trifluoromethyl)phenoxy]propane] | can protect | significant increase | can protect |  |  |  |  |  |  |  |  | 
CCCN[C@H]1CCc2nc(N)sc2C1 [pramipexole, (S)-6-propylamino-4,5,6,7-tetrahydro-1,3-benzothiazole-2-amine] |  |  |  | diminishes synuclein oligomer formation | failed to evidence neuroprotective (i.e., disease modifying) activity | inhibit the aggregation | decreases the in vitro oligomerization | inhibits the toxic effects of rotenone | reducing immunoreactivity | 76 % of patients | 39 % of patients | 36 % of patients
